Experimental data taken from patent publication US9816993B2, “Magnetically induced microspinning for super-detection and super-characterization of biomarkers and live cells” (THE REGENTS OF THE UNIVERSITY OF MICHIGAN, priority 2011, dated 2017).

Tested on: HeLa cell
Test: Cell magnetorotation of a single HeLa cell: rotation period and morphology under toxic agents
Assay type: cell-based
Text: The Y axis is the normalized period, and the X axis is time in seconds. Lines show trend between connected points. For each graph, in the pictures above it, the bottom pictures show snapshots of the rotated cell at each indicated time, while the schematic pictures on top of it show the corresponding cell shapes (fixated cell not shown). Dark discs represent the cell cytoplasm and membrane, while grey spots show the vesicles formed at the surface, if any.
In this example, cancer cells loaded with nanoparticles were magnetically separated and resuspended in different media, such as culture medium (DMEM), DMEM with 5% Ethanol, or DMEM with 75% deionized water. Each medium was used to verify different aspects of this method: DMEM was used as a control, ethanol was used as a cytotoxic agent, and, to promote stress through cell swelling, we used a large proportion of DI water, reversing the ionic balance between the inside and outside of the cell. Note that a large concentration of salt in solution has the opposite effect on the cell, namely shrinking it. The cells in suspension were then pipetted onto a LIVE CELL ARRAY plate (NUNC), where the array has 100 μm wide wells, which provide adequate compartments for single cells to rotate and be analyzed. Optical scattering signals were recorded and the changes in the rotation period were measured for the different media (FIG. 2).
Cell swelling generally occurs because of the osmotic pressure created either by an ionic imbalance, as mentioned earlier, or by a lack of nutrients. Either way, the cell expands to cope with the imbalance of the chemicals it needs for maintaining its metabolism. To reach ionic disparity, we used DI water (FIG. 2B).

For N.N.[Cl][Pt][Cl] [Cisplatin], the “rise of cell rotation period” value (Cisplatin 100 ug/ml (red line on FIG. 2D)) was 550%, the “time for blebs to appear at the surface of the cell” value (Cisplatin at 100 ug/ml) was “several hours” and the cell death (single HeLa cell in DMEM with 100 ug/ml Cisplatin) was “cell death is provoked”.

In the case of CCO [ethanol], the “time for blebs to appear at the surface of the cell” value (5% ethanol in DMEM) is reported as “around 30 minutes”, the “rise of cell rotation period” value (5% ethanol in DMEM (FIG. 2C)) is reported as 550% and the cell death (single HeLa cell in DMEM with 5% ethanol) is reported as “cell death is provoked”.
